System: patients with metastatic breast cancer
Conditions: DPPE pretreatment
Experimental: In the specific Phase II clinical trial described herein, there was employed 6 mg/kg of DPPE in the form of its hydrochloride salt, administered intravenously as an aqueous solution thereof over 80 minutes, with the last 20 minutes being accompanied by infusion of the chemotherapeutic agents doxorubicin or epirubicin in combination with Taxol or Taxotere followed by the intravenous administration of an aqueous solution at a dose of 2.5 mg/kg of DPPE for 180 minutes accompanied by the infusion of Taxol or for 60 minutes accompanied by the infusion of Taxotere.
In the specific Phase II clinical trial described herein, there was employed 50 mg/M^2 of doxorubicin/epirubicin and either 175 mg/^2 Taxol or 75 mg/M^2 Taxotere administered over the last 20 minutes of infusion of the DPPE solution and over a further 180 minutes for Taxol or 60 minutes for Taxotere, accompanied by infusion of a 2.5 mg/kg of DPPE solution.
29 patients with metastatic breast cancer were treated with a combination of DPPE and epirubicin/Taxol (N=22), DPPE and doxorubicin/Taxol (N=6) or a combination of DPPE and epirubicin/Taxotere (N=1). […]

CCN(CC)CCOc1ccc(Cc2ccccc2)cc1 [DPPE, N,N-diethyl-2-[4-(phenylmethyl)-phenoxy]ethanamine]
TTP in comparison to patients not receiving DPPE treatment: did not improve | overall survival of patients receiving DPPE (compared with published studies): significantly improved

Source: patent US20060089317A1, “Treatment of metastatic breast cancer with anthracyclines, and taxanes” (The University Of Manitoba, priority 2002, published 2006)
